Measurements reported in patent publication US20130065227A1, “METHODS OF INCREASING MACROPINOCYTOSIS IN CANCER CELLS” (priority 2010, published 2013).
Residues, ends and D or L forms follow the SMILES beside them. *: point of attachment. Cbz = O=C(OCc1ccccc1)*; CH2F = FC*

Columns and labels:
[1] = system: U937 leukemia cells; experiment: Cell death mechanism (DNA laddering, immunoblotting, electron microscopy); type: cell-based
Method: (A) Trypan blue staining of U937 leukemia cells showing percentage of dead cells (trypan blue positive) over time. (B) U937 cells were untreated (Un) or treated with 1 μM AS1411 (1411) or control oligonucleotide (Ctrl) for 72 h. DNA was extracted, electrophoresed on an agarose gel and stained with ethidium bromide to probe DNA laddering. As a positive control, […] were treated with UV irradiation to induce apoptosis as previously described. […] (D) U937 cells treated as described for panel B, followed by protein extraction and immunoblotting (IB) to detect PARP cleavage and Caspase-3 activation. (E) DU145 prostate cancer cells were incubated with 10 μM of AS1411 for 24 h, or irradiated with UV (300 J/m^2 with UV Stratalinker 2400, Strategene), then cultured in fresh medium for 6 h. Assessment of cell death was carried out by flow cytometry to detect Annexin V-FITC binding and PI staining.

[2] = system: DU145 cells; type: cell-based
Method: DU145 cells were incubated for 4 days in the presence of 10 μM AS1411 with 3-MA at the concentration indicated, and cell number was assessed by MTT assay.
It also appears unlikely that AS1411-induced cell death is due to autophagy. […] Further evidence that supports the idea that AS1411 can induce methuosis comes from the similarity between the appearance of cells treated with AS1411 and published images of glioblastoma cells undergoing Ras-induced methuosis.

[3] = system: MDA-MB-231; experiment: Uptake of AS1411 by macropinocytosis (MP); type: cell-based; details: amiloride treatment, MDA-MB-231 cells
Excerpt: (§1) There was little effect of amiloride treatment on uptake of FL-CRO in either DU145 cancer cells or non-malignant Hs27 cells (FIG. 9B). […] These studies also confirmed the previous results that there was higher overall uptake of FL-AS1411 in Hs27 cells than in DU145 cells.
(§2) It has recently been discovered that AS1411 can stimulate macropinocytosis (MP) in cancer cells and this finding was verified by several different methods and in multiple cancer cell lines (Table 1).

[4] = system: MCF7; experiment: Uptake of AS1411 by macropinocytosis (MP); type: cell-based; details: amiloride treatment, MCF7 cells
Excerpt: as §1, §2

[5] = system: DU145; experiment: Uptake of AS1411 by macropinocytosis (MP); type: cell-based; details: 3 mM amiloride for 1 h, then 10 μM FL-AS1411 2 h
Method: (§3) FIG. 2 are graphs showing that AS1411 is internalized by different endocytic mechanisms in DU145 cancer cells and in non-malignant Hs27 cells. DU145 or Hs27 cells were plated 18 h before uptake analysis. Cells were pre-treated as described with inhibitor (gray histogram) or the corresponding vehicle control (black histogram) before addition of 10 μM FL-AS1411 and incubation at 37° C. for 2 h. After incubation, cells were harvested and analyzed by flow cytometry. Pre-treatment conditions were at 37° C. with: (Panel A) 5 μM Cytochalasin D for 30 min; (Panel B) 80 μM Dynasore for 30 min; or (Panel C) 3 mM amiloride for 1 h. All experiments were repeated at least three times and representative data are shown. Solid gray histograms represent background autofluorescence of unstained cells.
To analyze uptake of the oligodeoxynucleotides or dextran-10K (macropinocytic marker) by flow cytometry, 2×10^5 cells in fresh supplemented culture medium (2.5 ml) were plated into 6-well plates for 18 h. After complete adhesion, the cells were incubated with 5′-FAM tagged oligodeoxynucleotides or Alexa Fluor 488 tagged dextran-10K and incubated as indicated in the Description of the Drawings. Cells were washed once with ice-cold PBS, incubated with 1 μg/ml 7-amino-actinomycin D (7-AAD) for 5 min on ice or 1 μg/ml propidium iodide (PI), and washed twice with ice-cold PBS. […]

[6] = system: DU145 cells; experiment: Uptake of fluorophore-labeled oligonucleotides by flow cytometry; type: cell-based
Method: (§4) FIG. 1 are graphs showing that AS1411 cell internalization is an active process. Cells were plated 18 h before uptake analysis. After incubation as described, cells were washed with ice-cold PBS, incubated with 1 μg/ml 7-AAD, harvested and resuspended in 1% paraformaldehyde containing 2 μg/ml actinomycin D, then analyzed by flow cytometry. (Panel A) DU145 cells were incubated at 37° C. with fresh complete DMEM medium containing 10 μM FL-AS1411 (black line) or 10 μM FL-CRO (gray line) for the time indicated. (Panel B) DU145 cells were incubated for 2 h at 37° C. in complete or serum-free DMEM medium containing 10 μM FL-AS1411, or 10 μM FL-CRO, or no oligonucleotide. (Panel C) Various cell lines were incubated with 10 μM FL-AS1411 (black outline histogram), 10 μM FL-CRO (gray outline histogram) or without DNA (solid gray histogram) at 37° C. or 4° C. for 2 h. All experiments were repeated at least three times. Data are mean of three independent samples; bars, SE; *(p<0.05).
as §3
DU145 cells were transfected for 48 h without siRNA (mock, M), or with 30 nM of one of three different nucleolin siRNAs (NCL1, NCL2, NCL3) or a control siRNA (scramble, S), or contransfected with 10 nM of each nucleolin siRNAs (mix). (Panel A) Cells were lysed and total cell lyses were analyzed by Western blotting using the antibodies shown. (Panel B) Cell-surface proteins from intact transfected DU145 cells were labeled covalently with membrane-impermeable biotinylating agent. Cells were lysed, then biotinylated plasma membrane proteins were captured with streptavidin-agarose beads and analyzed by blotting with anti-nucleolin antibody (upper panel). After stripping, the membrane was reprobed with antibodies for a plasma membrane marker (anti-pan Cadherin) and a nuclear marker (anti-histone 3) to confirm the fractionation. Total lysate (Lys) was used as control. (Panel C) The medium of transfected cells was replaced by fresh complete DMEM medium containing no oligonucleotide (gray dashed histogram) or 10 μM FL-CRO (gray solid line histogram) or 10 μM FL-AS1411 (black solid line histogram) and incubated at 37° C. for 2 h. After incubation, cells were harvested and analyzed by flow cytometry.
DU145 cells were plated 18 hr before uptake analysis. Cell medium was changed with fresh complete DMEM medium containing different concentrations of FL-AS1411 (black line) or FL-CRO (gray line), and incubated at 37° C. for 2 hrs. After incubation, cells were harvested and analyzed by flow cytometry.
FIG. 9 are graphs showing the effects of inhibitors on various endocytic pathways. DU145 or Hs27 cells were plated 18 hr before uptake analysis. (Panel A) DU145 cells were pre-treated with dynamin inhibitor, […] Dynasore (black histogram) or DMSO (gray histogram) for 30 min at 37° C. After pre-treatment, cells were treated with […] transferrin conjugated with Alexa Fluor 488 for 30 min at 37° C. (Panel B) DU145 and Hs27 cells were pre-treated with 3 mM amiloride (black histogram) or vehicle (serum-free medium, gray histogram) for 1 h at 37° C. After pre-treatment, FL-CRO was added at a concentration of 10 μM and incubated at 37° C. for 2 h. After incubation, cells were harvested and analyzed by FACS. […]

[7] = system: Hs27 cells; experiment: as above; type: cell-based, human
Method: as §4, §3
FIG. 9 are graphs showing the effects of inhibitors on various endocytic pathways. DU145 or Hs27 cells were plated 18 hr before uptake analysis. (Panel A) DU145 cells were pre-treated with dynamin inhibitor, […] Dynasore (black histogram) or DMSO (gray histogram) for 30 min at 37° C. After pre-treatment, cells were treated with […] transferrin conjugated with Alexa Fluor 488 for 30 min at 37° C. (Panel B) DU145 and Hs27 cells were pre-treated with 3 mM amiloride (black histogram) or vehicle (serum-free medium, gray histogram) for 1 h at 37° C. After pre-treatment, FL-CRO was added at a concentration of 10 μM and incubated at 37° C. for 2 h. After incubation, cells were harvested and analyzed by FACS. Gray solid histogram represents unstained cells.
To analyze uptake of the oligodeoxynucleotides or dextran-10K (macropinocytic marker) by flow cytometry, 2×10^5 cells in fresh supplemented culture medium (2.5 ml) were plated into 6-well plates for 18 h. […]

[8] = system: DU145; experiment: Stimulation of macropinocytosis (dextran uptake); type: cell-based; details: 10 μM for 24, 48, or 72 h, flow cytometry
Method: (Panel A) DU145 cells were treated with 10 μM tAS1411 or 10 μM tCRO or no oligonucleotide in complete DMEM medium at 37° C. for the time indicated. After treatment, cell medium was changed for fresh complete medium containing 0.2 mg/ml dextran-10K labeled with Alexa Fluor 488, and cells were incubated for 30 min at 37° C. After incubation, cells were harvested and analyzed by flow cytometry to determine dextran uptake. (Panel B) The same experiment was performed using Hs27 cells. (Panel C) DU145 cells were treated with 10 μM tAS1411 or 10 μM tCRO or no oligonucleotide in complete DMEM medium at 37° C. for 48 h. After treatment, cell medium was changed for fresh complete medium containing 0.2 mg/ml dextran-10K tagged with Alexa Fluor 488, and cells were incubated for 30 min at 37° C. Then, cells were washed with cold PBS, added PBS containing 5 μg/ml PI and incubated on ice for 5 min. After washing with cold PBS, cells were fixed and the distribution of macropinocytic marker was visualized by confocal microscopy. The nucleus was stained with DAPI (blue). Scale bars, 10 μm. All experiments have been repeated at least three times. Data are mean of three independent samples; bars, SE; *(p<0.05).
FIG. 6 are graphs showing that nucleolin regulates AS1411-induced stimulation of macropinocytosis. DU145 cells were untreated (no transfection) or transfected, without siRNA (mock), or with 30 nM of one of three different nucleolin siRNAs (NCL1, NCL2, NCL3) or a control siRNA (scramble). 48 h after transfection, cells were incubated with 10 μM tAS1411, 10 μM tCRO, or no oligonucleotide in complete DMEM medium at 37° C. for 24 h. (Panel A) After treatment, cell medium was changed for fresh complete medium containing 0.2 mg/ml dextran-10K labeled with Alexa Fluor 488 (green) and incubated for 30 min at 37° C. (Panel B) After treatment, some cells were washed, fresh complete medium containing 10 μM FL-AS1411 added and incubated for 2 h at 37° C. After incubation, cells were harvested and analyzed by flow cytometry. Mean fluorescence was normalized to “not transfected” control (Panel A) or to no pre-treatment control (Panel B). All experiments have been repeated at least three times. Data are the mean of three independent samples; bars, SE; *(p<0.05).
FIG. 11 is a graph showing a comparison between AS1411 and tAS1411 in the ability to stimulate macropinocytosis. DU145 cells were plated 18 hr before treatment with different concentrations (0, 5, 10, or 15 μM) of AS1411, tAS1411 or tCRO in complete DMEM medium at 37° C. for 48 h. After treatment, cell medium was changed for fresh complete medium containing 0.2 mg/ml dextran-10K labeled with Alexa Fluor 488, and cells were incubated for 30 min at 37° C. After incubation, cells were incubated on ice with […] PI in PBS, harvested, fixed and immediately analyzed by flow cytometry.
To analyze uptake of the oligodeoxynucleotides or dextran-10K (macropinocytic marker) by flow cytometry, 2×10^5 cells in fresh supplemented culture medium (2.5 ml) were plated into 6-well plates for 18 h. After complete adhesion, the cells were incubated with 5′-FAM tagged oligodeoxynucleotides or Alexa Fluor 488 tagged dextran-10K and incubated as indicated in the Description of the Drawings. Cells were washed once with ice-cold PBS, incubated with 1 μg/ml 7-amino-actinomycin D (7-AAD) for 5 min on ice or 1 μg/ml propidium iodide (PI), and washed twice with ice-cold PBS. Cells were then treated with 0.01% trypsin/0.5 mM EDTA (300 μl) for 3 min prior addition 3 ml supplemented culture medium. The cells were then centrifuged and resuspended in 0.5 ml of 1% paraformaldehyde for analysis by flow cytometry using a FACScalibur cytometer (BD Biosciences, Mountain View, Calif.).
AS1411 causes a change in cancer cell morphology that is characterized by vacuolization, irregular nuclei, and swollen cells (Xu et al., 2001, J. Biol. Chem., 276:43221-30). […]

[9] = 3 mM amiloride for 1 h, then 10 μM FL-CRO 2 h
[10] = 5 μM cytochalasin D for 30 min, then 10 μM FL-AS1411 2 h

## COC(=O)CC[C@H](NC(=O)[C@H](CC(=O)OC)NC(=O)OCc1ccccc1)C(=O)N[C@H](C(=O)N[C@@H](CC(=O)OC)C(=O)CF)C(C)C [zDEVD-fmk]
[1]
  effect of pre-incubation on AS1411-induced cell death: did not inhibit AS1411-induced cell death

## Cn1cnc(N)c2ncnc1-2 [3-methyladenine]
[2]
  toxicity of the inhibitor alone: some toxicity by itself
[2]; 4 days, 10 μM AS1411
  effect on AS1411 activity: did not inhibit AS1411 activity

## CC[C@H](C)[C@H](NC(=O)OCc1ccccc1)C(=O)N[C@@H](CCC(=O)OC)C(=O)N[C@H](C(=O)N[C@@H](CC(=O)OC)C(=O)CF)[C@@H](C)O [zIETD-fmk] (Cbz-IE(OMe)TD(OMe)-CH2F)
[1]
  effect of pre-incubation on AS1411-induced cell death: did not inhibit AS1411-induced cell death

## N=C(N)NC(=O)c1nc(Cl)c(N)nc1N [amiloride, reference compound]
[3]
  effect of treatment on AS1411 uptake: affected the AS1411 uptake
[4]
  effect of treatment on AS1411 uptake: affected the AS1411 uptake
[5]
  effect of pre-treatment on FL-AS1411 uptake: reduction in FL-AS1411 uptake
[6]; [9]
  effect of treatment on uptake of FL-CRO: little effect
[7]; [9]
  effect of treatment on uptake of FL-CRO: little effect

## NC(=O)c1cccc(N)c1 [3-aminobenzamide]
[1]
  effect of pre-incubation on AS1411-induced cell death: did not inhibit AS1411-induced cell death

## COC(=O)CC[C@H](NC(=O)[C@H](CC(C)C)NC(=O)OCc1ccccc1)C(=O)N[C@@H](Cc1cnc[nH]1)C(=O)N[C@@H](CC(=O)OC)C(=O)CF [zLEHD-fmk] (Cbz-LE(OMe)HD(OMe)-CH2F)
[1]
  effect of pre-incubation on AS1411-induced cell death: did not inhibit AS1411-induced cell death

## 5′-d(TTTCCTCCTCCTCCTTCTCCTCCTCCTCC) (DNA TTTCCTCCTCCTCCTTCTCCTCCTCCTCC; unmodified DNA) [tCRO, reference compound]
[8]
  uptake of the macropinocytic marker, dextran, after treatment: No changes in dextran uptake

## C=C1[C@@H](C)[C@H]2[C@H](Cc3ccccc3)NC(=O)[C@]23[C@H](OC(C)=O)/C=C/[C@@](C)(O)C(=O)[C@@H](C)C/C=C/[C@H]3[C@@H]1O [Cytocholasin D, Cytochalasin D, reference compound]
[6]; [10]
  effect of pre-treatment on FL-AS1411 uptake: decrease in FL-AS1411 uptake
[7]; [10]
  effect of pre-treatment on FL-AS1411 uptake: decrease in FL-AS1411 uptake

## COC(=O)C[C@H](NC(=O)[C@H](C)NC(=O)[C@@H](NC(=O)OCc1ccccc1)C(C)C)C(=O)CF [zVAD-fmk] (Cbz-Val-Ala-Asp(OMe)-CH2F)
[1]
  effect of pre-incubation on AS1411-induced cell death: did not inhibit AS1411-induced cell death
